ChEMBL document CHEMBL3886628, “Substituted 3-(biphenyl-3-yl)-4-hydroxy-8-methoxy-1-azaspiro[4.5]dec-3-en-2-one” (2016)
“And” between values parts separate entries of the source, which are not always exact repeats. Equal values may be shown once.

Key:
[1] = target: Acetyl-CoA carboxylase 1 (Homo sapiens, UniProt Q13085); assay: Typical concentrations were in the range of 1.75 μl.
[2] = target: Acetyl-CoA carboxylase 2 (Homo sapiens, UniProt O00763)
Acetyl-CoA carboxylase 2, sequence (O00763 whole entry): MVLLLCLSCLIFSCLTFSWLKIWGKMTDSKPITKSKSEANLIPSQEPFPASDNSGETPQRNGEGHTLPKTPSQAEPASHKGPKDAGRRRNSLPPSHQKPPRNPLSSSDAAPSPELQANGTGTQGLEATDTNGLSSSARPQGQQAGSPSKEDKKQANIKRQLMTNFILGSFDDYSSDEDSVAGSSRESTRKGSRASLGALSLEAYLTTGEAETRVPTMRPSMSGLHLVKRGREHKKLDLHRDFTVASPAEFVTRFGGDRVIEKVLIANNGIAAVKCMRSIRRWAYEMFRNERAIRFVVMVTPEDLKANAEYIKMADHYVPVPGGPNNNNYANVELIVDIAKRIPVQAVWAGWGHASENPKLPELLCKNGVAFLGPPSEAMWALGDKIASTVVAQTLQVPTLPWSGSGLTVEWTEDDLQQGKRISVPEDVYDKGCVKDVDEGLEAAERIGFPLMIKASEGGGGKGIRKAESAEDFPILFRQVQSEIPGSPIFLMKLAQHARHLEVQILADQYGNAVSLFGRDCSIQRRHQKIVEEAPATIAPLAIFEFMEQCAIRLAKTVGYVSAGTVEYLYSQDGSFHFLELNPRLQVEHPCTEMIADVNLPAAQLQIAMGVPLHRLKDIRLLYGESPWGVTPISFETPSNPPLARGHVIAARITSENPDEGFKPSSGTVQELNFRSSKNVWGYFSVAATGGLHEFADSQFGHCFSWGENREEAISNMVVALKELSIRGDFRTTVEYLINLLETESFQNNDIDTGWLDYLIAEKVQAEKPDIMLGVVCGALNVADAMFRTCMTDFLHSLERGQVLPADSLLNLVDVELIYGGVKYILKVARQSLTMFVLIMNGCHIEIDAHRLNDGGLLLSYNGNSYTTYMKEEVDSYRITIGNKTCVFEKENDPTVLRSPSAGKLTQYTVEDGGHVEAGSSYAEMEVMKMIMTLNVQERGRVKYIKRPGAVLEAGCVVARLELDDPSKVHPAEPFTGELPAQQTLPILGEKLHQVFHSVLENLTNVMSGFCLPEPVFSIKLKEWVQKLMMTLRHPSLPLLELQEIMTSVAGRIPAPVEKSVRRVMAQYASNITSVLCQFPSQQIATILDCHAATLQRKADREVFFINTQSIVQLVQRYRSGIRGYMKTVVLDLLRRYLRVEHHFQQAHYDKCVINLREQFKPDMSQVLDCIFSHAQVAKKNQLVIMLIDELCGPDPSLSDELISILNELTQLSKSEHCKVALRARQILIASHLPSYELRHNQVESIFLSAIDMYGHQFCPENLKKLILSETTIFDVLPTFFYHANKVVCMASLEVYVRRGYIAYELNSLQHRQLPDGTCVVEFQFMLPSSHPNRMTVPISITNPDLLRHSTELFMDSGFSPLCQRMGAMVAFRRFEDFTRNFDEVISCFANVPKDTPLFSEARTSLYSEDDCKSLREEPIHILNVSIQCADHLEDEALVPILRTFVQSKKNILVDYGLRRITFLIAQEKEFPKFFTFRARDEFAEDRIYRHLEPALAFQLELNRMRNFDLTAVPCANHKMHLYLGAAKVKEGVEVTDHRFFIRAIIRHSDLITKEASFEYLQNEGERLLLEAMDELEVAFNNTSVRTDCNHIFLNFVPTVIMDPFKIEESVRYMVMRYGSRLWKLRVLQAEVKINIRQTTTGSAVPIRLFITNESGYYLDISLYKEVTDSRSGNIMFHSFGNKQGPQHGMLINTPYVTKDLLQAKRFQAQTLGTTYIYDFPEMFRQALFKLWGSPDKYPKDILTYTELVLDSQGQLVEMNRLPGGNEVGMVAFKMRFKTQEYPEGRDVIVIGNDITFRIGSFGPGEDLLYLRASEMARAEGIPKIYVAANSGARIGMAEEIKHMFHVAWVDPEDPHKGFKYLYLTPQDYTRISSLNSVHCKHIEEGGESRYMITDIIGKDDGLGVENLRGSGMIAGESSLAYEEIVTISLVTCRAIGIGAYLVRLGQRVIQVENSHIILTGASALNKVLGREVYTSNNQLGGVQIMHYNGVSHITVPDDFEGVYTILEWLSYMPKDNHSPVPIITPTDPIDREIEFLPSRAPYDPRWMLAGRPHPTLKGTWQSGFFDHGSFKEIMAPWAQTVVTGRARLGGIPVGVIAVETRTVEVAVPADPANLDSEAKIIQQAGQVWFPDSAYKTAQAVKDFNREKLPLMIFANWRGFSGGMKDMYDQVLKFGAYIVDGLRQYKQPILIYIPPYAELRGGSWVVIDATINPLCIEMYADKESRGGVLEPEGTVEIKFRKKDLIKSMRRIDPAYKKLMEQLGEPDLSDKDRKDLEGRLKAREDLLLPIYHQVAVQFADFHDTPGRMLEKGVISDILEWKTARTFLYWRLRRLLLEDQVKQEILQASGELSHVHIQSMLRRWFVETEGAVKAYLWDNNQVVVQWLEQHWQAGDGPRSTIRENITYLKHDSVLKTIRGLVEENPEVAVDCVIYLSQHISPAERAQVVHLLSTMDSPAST

Row | IC50 [1] | IC50 [2] | Compound
1 | 92 nM and 119 nM | 2760 nM and 1690 nM and 2010 nM | CO[C@]1(C(F)(F)F)CC[C@]2(CC1)NC(=O)C(c1cc(-c3ccc(Cl)c(F)c3)ccc1C)=C2O
2 | 231 nM and 244 nM and 44 nM and 67 nM and 78 nM and 162 nM and 186 nM and 99 nM |  | CO[C@]1(C(F)(F)F)CC[C@]2(CC1)NC(=O)C(c1cc(-c3ccc(Cl)cc3)ccc1C)=C2O
3 | 104 nM and 133 nM and 84 nM |  | COC[C@]1(OC)CC[C@@]2(CC1)NC(=O)C(c1cc(-c3ccc(Cl)c(F)c3)ccc1C)=C2O
